How the values were obtained:
[1] = (§1) The drug is tested on Z-028 corresponding to mouse gut metagenome with ENA study accession number: PRJEB37062 and ENA sample accession number: ERS12561827 for biotransformation under anaerobic condition. The drug concentrations were measured over 9 timepoints collected between 0 and 24 hours of incubation by liquid-chromatography-coupled mass spectrometry (LC–MS); conditions: 2 µM
[2] = as §1, with “WLS-086” for “Z-028”, “human” for “mouse”, “ERS12561752” for “ERS12561827”; conditions: 2 µM
[3] = as §1, with “WLS-370” for “Z-028”, “human” for “mouse”, “ERS12561793” for “ERS12561827”; conditions: 2 µM
[4] = as §1, with “WLS-027” for “Z-028”, “human” for “mouse”, “ERS12561744” for “ERS12561827”; conditions: 2 µM
[5] = as §1, with “Z-013” for “Z-028”, “rabbit” for “mouse”, “ERS12561813” for “ERS12561827”; conditions: 2 µM
[6] = as §1, with “Z-022” for “Z-028”, “ERS12561821” for “ERS12561827”; conditions: 2 µM
[7] = human gut metagenome, 24 h, 2 µM
[8] = as §1, with “Z-011” for “Z-028”, “ERS12561811” for “ERS12561827”; conditions: 2 µM
[9] = as §1, with “Z-025” for “Z-028”, “rabbit” for “mouse”, “ERS12561824” for “ERS12561827”; conditions: 2 µM
Further: call rule not given here.

Row | Structure (SMILES) | Bacterial Biotransformation [1] | Bacterial Biotransformation [2] | Bacterial Biotransformation [3] | Bacterial Biotransformation [4] | Bacterial Biotransformation [5] | Bacterial Biotransformation [6] | Bacterial Biotransformation [7] | Bacterial Biotransformation [8] | Bacterial Biotransformation [9]
1 | Nc1c2c(nc3ccccc13)CCCC2 [TACRINE] | Compound NOT metabolized | Compound metabolized | Compound NOT metabolized | Compound NOT metabolized | Compound NOT metabolized | Compound NOT metabolized | Compound NOT metabolized | Compound NOT metabolized | Compound NOT metabolized
2 | CCC(=O)NCC[C@@H]1CCc2ccc3c(c21)CCO3 [RAMELTEON] | Compound NOT metabolized | Compound metabolized | Compound metabolized | Compound metabolized | Compound metabolized | Compound metabolized | Compound metabolized | Compound NOT metabolized | Compound NOT metabolized
3 | CC(C)(Oc1ccc(CCNC(=O)c2ccc(Cl)cc2)cc1)C(=O)O [BEZAFIBRATE] | Compound NOT metabolized | Compound metabolized | Compound metabolized | Compound metabolized | Compound metabolized | Compound metabolized | Compound metabolized | Compound NOT metabolized | Compound NOT metabolized
4 | CCN(CC)CCNC(=O)c1cc(Cl)c(N)cc1OC [METOCLOPRAMIDE] | Compound NOT metabolized | Compound metabolized | Compound NOT metabolized | Compound NOT metabolized | Compound NOT metabolized | Compound NOT metabolized | Compound NOT metabolized | Compound NOT metabolized | Compound NOT metabolized
5 | Cc1ccc(S(=O)(=O)NC(=O)NN2CCCCCC2)cc1 [TOLAZAMIDE] | Compound metabolized | Compound metabolized | Compound metabolized | Compound metabolized | Compound metabolized | Compound metabolized | Compound metabolized | Compound NOT metabolized | Compound metabolized
6 | CCCC1O[C@@H]2C[C@H]3[C@@H]4CCC5=CC(=O)C=C[C@]5(C)[C@H]4[C@@H](O)C[C@]3(C)[C@]2(C(=O)CO)O1 (some centres not stated) [BUDESONIDE] | Compound metabolized | Compound metabolized | Compound metabolized | Compound metabolized | Compound metabolized | Compound NOT metabolized | Compound metabolized | Compound metabolized | Compound NOT metabolized
7 | COC(=O)[C@H]1[C@H]2C[C@@H]3c4[nH]c5cc(OC)ccc5c4CCN3C[C@H]2C[C@@H](OC(=O)c2cc(OC)c(OC)c(OC)c2)[C@@H]1OC [RESERPINE] | Compound NOT metabolized | Compound metabolized | Compound metabolized | Compound metabolized | Compound NOT metabolized | Compound metabolized | Compound NOT metabolized | Compound NOT metabolized | Compound NOT metabolized
8 | CC(CN(C)C)CN1c2ccccc2CCc2ccccc21.O=C(O)/C=C\C(=O)O (configuration not stated) [TRIMIPRAMINE MALEATE] | Compound NOT metabolized | Compound metabolized | Compound NOT metabolized | Compound metabolized | Compound NOT metabolized | Compound NOT metabolized | Compound NOT metabolized | Compound NOT metabolized | Compound NOT metabolized
9 | CC(Oc1c(Cl)cccc1Cl)C1=NCCN1 (configuration not stated) [LOFEXIDINE] | Compound NOT metabolized | Compound metabolized | Compound NOT metabolized | Compound metabolized | Compound NOT metabolized | Compound NOT metabolized | Compound NOT metabolized | Compound NOT metabolized | Compound NOT metabolized
10 | CN1CCC(=C2c3ccccc3CCc3cccnc32)CC1.O=C(O)/C=C\C(=O)O.O=C(O)/C=C\C(=O)O [AZATADINE MALEATE] | Compound NOT metabolized | Compound NOT metabolized | Compound NOT metabolized | Compound NOT metabolized | Compound NOT metabolized | Compound NOT metabolized | Compound NOT metabolized | Compound NOT metabolized | Compound NOT metabolized
11 | Cc1ccnc2c1NC(=O)c1cccnc1N2C1CC1 [NEVIRAPINE] | Compound NOT metabolized | Compound metabolized | Compound metabolized | Compound NOT metabolized | Compound NOT metabolized | Compound NOT metabolized | Compound NOT metabolized | Compound NOT metabolized | Compound NOT metabolized
12 | CC(C)N(CCC(C(N)=O)(c1ccccc1)c1ccccn1)C(C)C.O=P(O)(O)O (configuration not stated) [DISOPYRAMIDE PHOSPHATE] | Compound NOT metabolized | Compound metabolized | Compound NOT metabolized | Compound NOT metabolized | Compound NOT metabolized | Compound NOT metabolized | Compound NOT metabolized | Compound NOT metabolized | Compound NOT metabolized
13 | CC(=O)CC(c1ccccc1)c1c(O)c2ccccc2oc1=O (configuration not stated) [WARFARIN] | Compound metabolized | Compound metabolized | Compound metabolized | Compound metabolized | Compound metabolized | Compound metabolized | Compound metabolized | Compound NOT metabolized | Compound metabolized
14 | O=C(NCc1ccccc1)OCCO [BURAMATE] | Compound NOT metabolized | Compound NOT metabolized | Compound NOT metabolized | Compound NOT metabolized | Compound NOT metabolized | Compound NOT metabolized | Compound NOT metabolized | Compound NOT metabolized | Compound NOT metabolized
15 | CS(=O)(=O)O.OC(CCN1CCCCC1)(c1ccccc1)c1ccccc1 [PRIDINOL METHANESULFONATE] | Compound NOT metabolized | Compound metabolized | Compound NOT metabolized | Compound NOT metabolized | Compound NOT metabolized | Compound NOT metabolized | Compound NOT metabolized | Compound NOT metabolized | Compound NOT metabolized
16 | O=P(O)(O)O.c1ccc(CN(CC2=NCCN2)c2ccccc2)cc1 [ANTAZOLINE PHOSPHATE] | Compound NOT metabolized | Compound metabolized | Compound metabolized | Compound NOT metabolized | Compound NOT metabolized | Compound NOT metabolized | Compound NOT metabolized | Compound NOT metabolized | Compound NOT metabolized
17 | COc1cc2nc(N3CCN(C(=O)c4ccco4)CC3)nc(N)c2cc1OC [PRAZOSIN] | Compound NOT metabolized | Compound metabolized | Compound metabolized | Compound NOT metabolized | Compound NOT metabolized | Compound NOT metabolized | Compound NOT metabolized | Compound NOT metabolized | Compound NOT metabolized
18 | COCCc1ccc(OCC(O)CNC(C)C)cc1.COCCc1ccc(OCC(O)CNC(C)C)cc1.O=C(O)C(O)C(O)C(=O)O (configuration not stated) [METOPROLOL TARTRATE] | Compound NOT metabolized | Compound metabolized | Compound metabolized | Compound NOT metabolized | Compound NOT metabolized | Compound NOT metabolized | Compound NOT metabolized | Compound NOT metabolized | Compound metabolized

Source: ChEMBL document CHEMBL5724914, “Linking interpersonal differences in gut microbiota composition and drug biotransformation activity” (2024)
